US20240101521A1, “DIAMINOTRIAZINE COMPOUNDS” (BASF SE, priority 2021, published 2024)

Experiments:
Assay in all cases: greenhouse pre-emergence herbicidal test
Format in all cases: in vivo
Amaranthus retroflexus = conditions: scale 0 to 100
Text: (§1) The culture containers used were plastic flowerpots containing loamy sand with approximately 3.0% of humus as the substrate. The seeds of the test plants were sown separately for each species.
(§2) For the pre-emergence treatment, the active ingredients, which had been suspended or emulsified in water, were applied directly after sowing by means of finely distributing nozzles. The containers were irrigated gently to promote germination and growth and subsequently covered with transparent plastic hoods until the plants had rooted. This cover caused uniform germination of the test plants, unless this had been impaired by the active ingredients. For the post-emergence treatment, the test plants were first grown to a height of 3 to 15 cm, depending on the plant habit, and only then treated with the active ingredients which had been suspended or emulsified in water. For this purpose, the test plants were either sown directly and grown in the same containers, or they were first grown separately as seedlings and transplanted into the test containers a few days prior to treatment.
(§3) Depending on the species, the plants were kept at 10-25° C. or 20-35° C., respectively.
(§4) The test period extended over 2 to 4 weeks. During this time, the plants were tended, and their response to the individual treatments was evaluated.
(§5) Evaluation was carried out using a scale from 0 to 100. 100 means no emergence of the plants, or complete destruction of at least the aerial moieties, and 0 means no damage, or normal course of growth. A moderate herbicidal activity is given at values of at least 60, a good herbicidal activity is given at values of at least 70, and a very good herbicidal activity is given at values of at least 85.
(§6) The plants used in the greenhouse experiments were of the following species: […]

Setaria faberi = conditions: scale 0 to 100
Text: as §1, §2, §3, §4, §5, §6

Alopecurus myosuroides = conditions: scale 0 to 100
Text: as §1, §2, §3, §4, §5, §6

Echinochloa crus-galli = conditions: scale 0 to 100
Text: as §1, §2, §3, §4, §5, §6

Abutilon theophrasti = conditions: pre-emergence, 62,5 g/ha, scale 0 to 100
Text: as §1, §2, §3, §4, §5, §6

Lolium multiflorum = conditions: pre-emergence, 62,5 g/ha, scale 0 to 100
Text: as §1, §2, §3, §4, §5, §6

Structure (SMILES) | herbicidal activity (Lolium multiflorum) [%] | herbicidal activity (Amaranthus retroflexus; pre-emergence, 62,5 g/ha) [%] | herbicidal activity (Alopecurus myosuroides; pre-emergence, 62,5 g/ha) [%] | herbicidal activity (Setaria faberi; pre-emergence, 62,5 g/ha) [%] | further results
COc1c(Cl)cc(Cl)c(F)c1Nc1nc(N)nc(C(C)F)n1 (stereo not drawn) [Example 63] | – | – | – | – | herbicidal activity (Amaranthus retroflexus; pre-emergence, 31 g/ha): 80%; herbicidal activity (Setaria faberi; pre-emergence, 31 g/ha): 100%; herbicidal activity (Alopecurus myosuroides; pre-emergence, 31 g/ha): 80%
C#CC(C)Oc1c(Br)cc(F)c(F)c1Nc1nc(N)nc(C2(F)CCCC2)n1 (stereo not drawn) [Example 97] | – | – | – | – | herbicidal activity (Amaranthus retroflexus; pre-emergence, 62 g/ha): 85%; herbicidal activity (Setaria faberi; pre-emergence, 62 g/ha): 85%; herbicidal activity (Alopecurus myosuroides; pre-emergence, 62 g/ha): 70%
CC#CC(C)Oc1c(Cl)cc(F)c(F)c1Nc1nc(N)nc(C(C)(C)F)n1 (stereo not drawn) [Example 98] | – | – | – | – | herbicidal activity (Amaranthus retroflexus; pre-emergence, 62 g/ha): 100%; herbicidal activity (Setaria faberi; pre-emergence, 62 g/ha): 100%; herbicidal activity (Alopecurus myosuroides; pre-emergence, 62 g/ha): 100%
CC#CC(C)Oc1c(Cl)cc(F)c(F)c1Nc1nc(N)nc(C2(F)CCCC2)n1 (stereo not drawn) [Example 100] | – | – | – | – | herbicidal activity (Setaria faberi; pre-emergence, 62 g/ha): 100%; herbicidal activity (Echinochloa crus-galli; pre-emergence, 62 g/ha): 100%; herbicidal activity (Alopecurus myosuroides; pre-emergence, 62 g/ha): 98%
CC#CC(C)Oc1c(F)cc(F)c(F)c1Nc1nc(N)nc(C2(F)CCCC2)n1 (stereo not drawn) [Example 104] | 100 | – | – | – | herbicidal activity (Abutilon theophrasti): 100%; herbicidal activity (Echinochloa crus-galli; pre-emergence, 62,5 g/ha): 100%
C#CC(C)(F)c1nc(N)nc(Nc2c(F)c(F)cc(Br)c2OC)n1 (stereo not drawn) [Example 115] | – | 100 | 98 | – | herbicidal activity (Abutilon theophrasti): 90%
CCC(C)(F)c1nc(N)nc(Nc2c(F)c(F)cc(Cl)c2OC)n1 (stereo not drawn) [Example 116] | – | 100 | 100 | – | herbicidal activity (Abutilon theophrasti): 100%
CC#CC(Oc1c(F)cc(F)c(F)c1Nc1nc(N)nc(C(C)(C)F)n1)C1CC1 (stereo not drawn) [Example 119] | 70 | 85 | – | 85 | –
COc1c(Br)cc(F)c(F)c1Nc1nc(N)nc(C(C)F)n1 (stereo not drawn) [Example 120] | – | 100 | – | – | herbicidal activity (Abutilon theophrasti): 100%; herbicidal activity (Echinochloa crus-galli; pre-emergence, 62,5 g/ha): 100%
COc1c(Br)cc(F)c(F)c1Nc1nc(N)nc(C(C)(F)CBr)n1 (stereo not drawn) [Example 123] | – | 100 | 100 | 100 | –
CC(C)(F)c1nc(N)nc(Nc2c(F)c(F)cc(Br)c2OC/C=C/Cl)n1 [Example 124] | 80 | 100 | – | 100 | –
CC(C)(F)c1nc(N)nc(Nc2c(F)c(F)cc(Cl)c2OC/C=C/Br)n1 [Example 125] | 100 | 100 | – | 100 | –
CC(C)(F)c1nc(N)nc(Nc2c(F)c(F)cc(F)c2OC/C=C/Cl)n1 [Example 126] | 100 | 100 | – | 100 | –
CC(C)(F)c1nc(N)nc(Nc2c(F)c(F)cc(F)c2OC/C=C/Br)n1 [Example 127] | 100 | 100 | – | 100 | –
C#CCOc1c(Cl)cc(F)c(F)c1Nc1nc(N)nc(C2(F)CCCC2)n1 [Example 129] | 90 | 95 | – | 100 | –
COc1c(Cl)c(F)c(F)c(F)c1Nc1nc(N)nc(C(C)(C)F)n1 [Example 148] | 100 | 100 | 100 | – | –
COc1c(Br)c(F)c(F)c(F)c1Nc1nc(N)nc(C(C)(C)F)n1 [Example 164] | – | 100 | 100 | 100 | –
COc1c(C)c(F)c(F)c(F)c1Nc1nc(N)nc(C(C)(C)F)n1 [Example 169] | – | 100 | 100 | – | herbicidal activity (Echinochloa crus-galli; pre-emergence, 62,5 g/ha): 100%
C=CC(C)(F)c1nc(N)nc(Nc2c(F)c(F)c(F)c(Cl)c2OC)n1 (stereo not drawn) [Example 173] | – | 100 | 100 | 95 | –
COc1c(Cl)c(F)c(F)c(F)c1Nc1nc(N)nc(C(C)(C)OC)n1 [Example 174] | 100 | 100 | 98 | – | –
